{"source": "ChEMBL document CHEMBL6103552", "about": "“Identification of peptide-based hepatitis B virus capsid inhibitors based on the viral core protein” (Bioorg Med Chem Lett, 2025)", "target": "Core antigen (Hepatitis B virus) (UniProt Q03732)", "sequence (Q03732 as listed by the source)": "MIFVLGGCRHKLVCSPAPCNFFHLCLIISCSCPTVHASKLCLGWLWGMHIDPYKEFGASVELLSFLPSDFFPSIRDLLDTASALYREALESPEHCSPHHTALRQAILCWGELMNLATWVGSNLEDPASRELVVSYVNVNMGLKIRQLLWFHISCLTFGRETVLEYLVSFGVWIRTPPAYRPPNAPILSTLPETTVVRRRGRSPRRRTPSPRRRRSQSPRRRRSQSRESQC", "test": "Inhibition of Hepatitis B virus capsid formation at 100 uM treated during cell-free wild type HBV Cp synthesis using wheat germ lysates and HBV Cp RNA by Native capsid assay based western blot analysis", "type": "subcellular", "note": "The source made the active and inactive calls. The rule behind the calls is not given here. Residues, ends and D or L forms follow the SMILES beside them."}
{"smiles": "CC(=O)N[C@@H](C)C(=O)N[C@@H](CO)C(=O)N[C@H](C(=O)N[C@@H](CCC(=O)O)C(=O)N[C@@H](CC(C)C)C(=O)N[C@@H](CC(C)C)C(=O)N[C@@H](CO)C(=O)N[C@@H](Cc1ccccc1)C(=O)N[C@@H](CC(C)C)C(=O)N1CCC[C@H]1C(=O)N[C@@H](CO)C(=O)N[C@@H](CC(=O)O)C(=O)N[C@@H](Cc1ccccc1)C(=O)N[C@@H](Cc1ccccc1)C(=O)N1CCC[C@H]1C(N)=O)C(C)C", "values": [{"measurement": "inhibition", "result": "inactive"}]}
{"smiles": "CC(=O)N[C@@H](CC(C)C)C(=O)N[C@@H](CCC(=O)O)C(=O)N[C@@H](CC(=O)O)C(=O)N1CCC[C@H]1C(=O)N[C@@H](C)C(=O)N[C@@H](CO)C(=O)N[C@@H](CCCNC(=N)N)C(=O)N[C@@H](CCC(=O)O)C(=O)N[C@@H](CC(C)C)C(=O)N[C@H](C(=O)N[C@H](C(=O)N[C@@H](CO)C(=O)N[C@@H](Cc1ccc(O)cc1)C(=O)N[C@H](C(=O)N[C@@H](CC(N)=O)C(N)=O)C(C)C)C(C)C)C(C)C", "values": [{"measurement": "inhibition", "result": "inactive"}]}
{"smiles": "CC(=O)N[C@@H](CO)C(=O)N[C@H](C(=O)N[C@@H](CC(C)C)C(=O)N1CCC[C@H]1C(=O)N[C@@H](CCC(=O)O)C(=O)N[C@H](C(=O)N[C@H](C(=O)N[C@H](C(=O)N[C@H](C(=O)N[C@@H](CCCNC(=N)N)C(=O)N[C@@H](CCCNC(=N)N)C(=O)N[C@@H](CCCNC(=N)N)C(=O)NCC(=O)N[C@@H](CCCNC(=N)N)C(=O)N[C@@H](CO)C(N)=O)C(C)C)C(C)C)[C@@H](C)O)[C@@H](C)O)[C@@H](C)O", "values": [{"measurement": "inhibition", "result": "inactive"}]}
{"smiles": "CC(=O)N[C@@H](Cc1c[nH]c2ccccc12)C(=O)N[C@H](C(=O)NCC(=O)N[C@@H](CO)C(=O)N[C@@H](CC(N)=O)C(=O)N[C@@H](CC(C)C)C(=O)N[C@@H](CCC(=O)O)C(=O)N[C@@H](CC(=O)O)C(=O)N1CCC[C@H]1C(=O)N[C@@H](C)C(=O)N[C@@H](CO)C(=O)N[C@@H](CCCNC(=N)N)C(=O)N[C@@H](CCC(=O)O)C(=O)N[C@@H](CC(C)C)C(=O)N[C@H](C(N)=O)C(C)C)C(C)C", "values": [{"measurement": "inhibition", "result": "inactive"}]}
{"smiles": "CC(=O)N[C@@H](Cc1ccc(O)cc1)C(=O)N[C@@H](CCCCN)C(=O)N[C@@H](CCC(=O)O)C(=O)N[C@@H](Cc1ccccc1)C(=O)NCC(=O)N[C@@H](C)C(=O)N[C@@H](CO)C(=O)N[C@H](C(=O)N[C@@H](CCC(=O)O)C(=O)N[C@@H](CC(C)C)C(=O)N[C@@H](CC(C)C)C(=O)N[C@@H](CO)C(=O)N[C@@H](Cc1ccccc1)C(=O)N[C@@H](CC(C)C)C(=O)N1CCC[C@H]1C(N)=O)C(C)C", "values": [{"measurement": "inhibition", "result": "inactive"}]}
{"smiles": "CC(C)C[C@H](NC(=O)[C@@H](NC(=O)[C@@H](N)CO)[C@@H](C)O)C(=O)N1CCC[C@H]1C(=O)N[C@@H](CCC(=O)O)C(=O)N[C@H](C(=O)N[C@H](C(=O)N[C@H](C(=O)N[C@H](C(=O)N[C@@H](CCCNC(=N)N)C(=O)N[C@@H](CCCNC(=N)N)C(=O)N[C@@H](CCCNC(=N)N)C(=O)NCC(=O)N[C@@H](CCCNC(=N)N)C(=O)N[C@@H](CO)C(N)=O)C(C)C)C(C)C)[C@@H](C)O)[C@@H](C)O", "values": [{"measurement": "inhibition", "result": "inactive"}]}
{"smiles": "CC[C@H](C)[C@H](NC(=O)[C@@H]1CCCN1C(=O)[C@H](C)NC(=O)[C@H](CC(N)=O)NC(C)=O)C(=O)N[C@@H](CC(C)C)C(=O)N[C@@H](CO)C(=O)N[C@H](C(=O)N[C@@H](CC(C)C)C(=O)N1CCC[C@H]1C(=O)N[C@@H](CCC(=O)O)C(=O)N[C@H](C(=O)N[C@H](C(=O)N[C@H](C(=O)N[C@H](C(=O)N[C@@H](CCCNC(=N)N)C(N)=O)C(C)C)C(C)C)[C@@H](C)O)[C@@H](C)O)[C@@H](C)O", "values": [{"measurement": "inhibition", "result": "inactive"}]}
{"smiles": "CC[C@H](C)[C@H](NC(=O)[C@H](C)NC(=O)[C@H](CCC(N)=O)NC(=O)[C@@H]1CCCN1C(C)=O)C(=O)N[C@@H](CC(C)C)C(=O)N[C@@H](CS)C(=O)N[C@@H](Cc1c[nH]c2ccccc12)C(=O)NCC(=O)N[C@@H](CCC(=O)O)C(=O)N[C@@H](CC(C)C)C(=O)N[C@@H](CCSC)C(=O)N[C@@H](CC(N)=O)C(=O)N[C@@H](CC(C)C)C(=O)N[C@@H](C)C(=O)N[C@H](C(N)=O)[C@@H](C)O", "values": [{"measurement": "inhibition", "result": "inactive"}]}
{"smiles": "CC[C@H](C)[C@H](NC(=O)[C@H](CC(=O)O)NC(=O)[C@H](CCSC)NC(C)=O)C(=O)N[C@@H](CC(=O)O)C(=O)N1CCC[C@H]1C(=O)N[C@@H](Cc1ccc(O)cc1)C(=O)N[C@@H](CCCCN)C(=O)N[C@@H](CCC(=O)O)C(=O)N[C@@H](Cc1ccccc1)C(=O)NCC(=O)N[C@@H](C)C(=O)N[C@@H](CO)C(=O)N[C@H](C(=O)N[C@@H](CCC(=O)O)C(=O)N[C@@H](CC(C)C)C(N)=O)C(C)C", "values": [{"measurement": "inhibition", "result": "inactive"}]}
{"smiles": "CC[C@H](C)[C@H](NC(=O)[C@H](CO)NC(=O)[C@@H]1CCCN1C(=O)[C@H](Cc1ccccc1)NC(=O)[C@H](Cc1ccccc1)NC(=O)[C@H](CC(=O)O)NC(=O)[C@H](CO)NC(=O)[C@@H]1CCCN1C(=O)[C@H](CC(C)C)NC(=O)[C@H](Cc1ccccc1)NC(=O)[C@H](CO)NC(=O)[C@H](CC(C)C)NC(C)=O)C(=O)N[C@@H](CCCNC(=N)N)C(=O)N[C@@H](CC(=O)O)C(=O)N[C@@H](CC(C)C)C(N)=O", "values": [{"measurement": "inhibition", "result": "inactive"}]}
{"smiles": "CC[C@H](C)[C@H](NC(=O)[C@H](CO)NC(=O)[C@@H]1CCCN1C(=O)[C@H](Cc1ccccc1)NC(=O)[C@H](Cc1ccccc1)NC(=O)[C@H](CC(=O)O)NC(=O)[C@H](CO)NC(C)=O)C(=O)N[C@@H](CCCNC(=N)N)C(=O)N[C@@H](CC(=O)O)C(=O)N[C@@H](CC(C)C)C(=O)N[C@@H](CC(C)C)C(=O)N[C@@H](CC(=O)O)C(=O)N[C@H](C(=O)N[C@@H](C)C(=O)N[C@@H](CO)C(N)=O)[C@@H](C)O", "values": [{"measurement": "inhibition", "result": "inactive"}]}
{"smiles": "CC[C@H](C)[C@H](NC(=O)[C@H](CO)NC(C)=O)C(=O)N[C@@H](CCCNC(=N)N)C(=O)N[C@@H](CC(=O)O)C(=O)N[C@@H](CC(C)C)C(=O)N[C@@H](CC(C)C)C(=O)N[C@@H](CC(=O)O)C(=O)N[C@H](C(=O)N[C@@H](C)C(=O)N[C@@H](CO)C(=O)N[C@@H](C)C(=O)N[C@@H](CC(C)C)C(=O)N[C@@H](Cc1ccc(O)cc1)C(=O)N[C@@H](CCCNC(=N)N)C(=O)N[C@@H](CCC(=O)O)C(N)=O)[C@@H](C)O", "values": [{"measurement": "inhibition", "result": "inactive"}]}
{"smiles": "CC[C@H](C)[C@H](NC(=O)[C@H](Cc1c[nH]c2ccccc12)NC(=O)[C@@H](NC(=O)CNC(=O)[C@H](Cc1ccccc1)NC(=O)[C@H](CO)NC(C)=O)C(C)C)C(=O)N[C@@H](CCCNC(=N)N)C(=O)N[C@H](C(=O)N1CCC[C@H]1C(=O)N1CCC[C@H]1C(=O)N[C@@H](C)C(=O)N[C@@H](Cc1ccc(O)cc1)C(=O)N[C@@H](CCCNC(=N)N)C(=O)N1CCC[C@H]1C(=O)N1CCC[C@H]1C(N)=O)[C@@H](C)O", "values": [{"measurement": "inhibition", "result": "inactive"}]}
{"smiles": "CSCC[C@H](NC(=O)[C@H](CC(C)C)NC(=O)[C@H](CCC(=O)O)NC(=O)CNC(=O)[C@H](Cc1c[nH]c2ccccc12)NC(=O)[C@H](CS)NC(C)=O)C(=O)N[C@@H](CC(N)=O)C(=O)N[C@@H](CC(C)C)C(=O)N[C@@H](C)C(=O)N[C@H](C(=O)N[C@@H](Cc1c[nH]c2ccccc12)C(=O)N[C@H](C(=O)NCC(=O)N[C@@H](CO)C(=O)N[C@@H](CC(N)=O)C(N)=O)C(C)C)[C@@H](C)O", "values": [{"measurement": "inhibition", "result": "inactive"}]}
{"smiles": "CSCC[C@H](NC(=O)[C@H](CC(N)=O)NC(=O)[C@@H](NC(=O)[C@H](CC(N)=O)NC(=O)[C@@H](NC(=O)[C@H](Cc1ccc(O)cc1)NC(=O)[C@H](CO)NC(=O)[C@@H](NC(=O)[C@@H](NC(=O)[C@H](CC(C)C)NC(=O)[C@H](CCC(=O)O)NC(=O)[C@H](CCCNC(=N)N)NC(=O)[C@H](CO)NC(C)=O)C(C)C)C(C)C)C(C)C)C(C)C)C(=O)NCC(=O)N[C@@H](CC(C)C)C(N)=O", "values": [{"measurement": "inhibition", "result": "inactive"}]}
{"smiles": "CSCC[C@H](NC(C)=O)C(=O)N[C@@H](CC(N)=O)C(=O)N[C@@H](CC(C)C)C(=O)N[C@@H](C)C(=O)N[C@H](C(=O)N[C@@H](Cc1c[nH]c2ccccc12)C(=O)N[C@H](C(=O)NCC(=O)N[C@@H](CO)C(=O)N[C@@H](CC(N)=O)C(=O)N[C@@H](CC(C)C)C(=O)N[C@@H](CCC(=O)O)C(=O)N[C@@H](CC(=O)O)C(=O)N1CCC[C@H]1C(=O)N[C@@H](C)C(N)=O)C(C)C)[C@@H](C)O", "values": [{"measurement": "inhibition", "result": "inactive"}]}
{"smiles": "CC(=O)N[C@@H](C)C(=O)N[C@@H](CC(C)C)C(=O)N[C@@H](CCC(=O)O)C(=O)N[C@@H](CO)C(=O)N1CCC[C@H]1C(=O)N[C@@H](CCC(=O)O)C(=O)N[C@@H](Cc1c[nH]cn1)C(=O)N[C@@H](CS)C(=O)N[C@@H](CO)C(=O)N1CCC[C@H]1C(=O)N[C@@H](Cc1c[nH]cn1)C(=O)N[C@@H](Cc1c[nH]cn1)C(=O)N[C@H](C(=O)N[C@@H](C)C(=O)N[C@@H](CC(C)C)C(N)=O)[C@@H](C)O", "note": "(Ac-ALESPEHCSPHHTAL-NH2)", "values": [{"measurement": "inhibition", "result": "inactive"}]}
{"smiles": "CC(=O)N[C@@H](C)C(=O)N[C@@H](CC(C)C)C(=O)N[C@@H](Cc1ccc(O)cc1)C(=O)N[C@@H](CCCNC(=N)N)C(=O)N[C@@H](CCC(=O)O)C(=O)N[C@@H](C)C(=O)N[C@@H](CC(C)C)C(=O)N[C@@H](CCC(=O)O)C(=O)N[C@@H](CO)C(=O)N1CCC[C@H]1C(=O)N[C@@H](CCC(=O)O)C(=O)N[C@@H](Cc1c[nH]cn1)C(=O)N[C@@H](CS)C(=O)N[C@@H](CO)C(=O)N1CCC[C@H]1C(N)=O", "note": "(Ac-ALYREALESPEHCSP-NH2)", "values": [{"measurement": "inhibition", "result": "inactive"}]}
{"smiles": "CC[C@H](C)[C@H](NC(=O)[C@@H]1CCCN1C(=O)[C@H](C)NC(=O)[C@H](CC(N)=O)NC(=O)[C@@H]1CCCN1C(=O)[C@@H]1CCCN1C(=O)[C@H](CCCNC(=N)N)NC(=O)[C@H](Cc1ccc(O)cc1)NC(=O)[C@H](C)NC(C)=O)C(=O)N[C@@H](CC(C)C)C(=O)N[C@@H](CO)C(=O)N[C@H](C(=O)N[C@@H](CC(C)C)C(=O)N1CCC[C@H]1C(=O)N[C@@H](CCC(=O)O)C(N)=O)[C@@H](C)O", "note": "(Ac-AYRPPNAPILSTLPE-NH2)", "values": [{"measurement": "inhibition", "result": "inactive"}]}
{"smiles": "CC[C@H](C)[C@H](NC(=O)[C@H](C)NC(=O)[C@H](CCC(N)=O)NC(=O)[C@@H]1CCCN1C(=O)[C@H](CC(C)C)NC(=O)[C@H](C)NC(=O)[C@@H](NC(=O)[C@H](Cc1c[nH]cn1)NC(=O)[C@H](Cc1c[nH]cn1)NC(=O)[C@@H]1CCCN1C(=O)[C@H](CO)NC(=O)[C@H](CS)NC(=O)[C@H](Cc1c[nH]cn1)NC(=O)[C@H](CCC(=O)O)NC(C)=O)[C@@H](C)O)C(=O)N[C@@H](CC(C)C)C(N)=O", "note": "(Ac-EHCSPHHTALPQAIL-NH2)", "values": [{"measurement": "inhibition", "result": "inactive"}]}
